# In ChEMBL document CHEMBL1152855, “Regioselective synthesis of dispiro[1H-indene-2,3'-pyrrolidine-2',3''-[3H]indole]-1,2''(1''H)-diones of potential anti-tumor properties” (2009):
# Assays:
# Format in all cases: functional
# Rattus norvegicus [1] = assay: Antiinflammatory activity against carrageenan-induced paw edema in Wister albino rat assessed as inhibition of edema at 50 mg/kg, ip administered 1 hr prior to carrageenan challenge measured after 2 hrs relative to control; details: route intraperitoneal
# HCC 2998 = assay: Growth inhibition of human HCC2998 cells at 10 uM after 48 hrs by sulforhodamine B assay; details: HCC 2998, 48 h, values are per cent of control
# MDA-MB-435 = assay: Growth inhibition of human MDA-MB-435 cells at 10 uM after 48 hrs by sulforhodamine B assay; details: MDA-MB-435, 48 h, values are per cent of control
# COLO 205 = assay: Growth inhibition of human COLO205 cells at 10 uM after 48 hrs by sulforhodamine B assay; details: COLO 205, 48 h, values are per cent of control
# M14 = assay: Growth inhibition of human M14 cells at 10 uM after 48 hrs by sulforhodamine B assay; details: M14, 48 h, values are per cent of control
# ACHN = assay: Growth inhibition of human ACHN cells at 10 uM after 48 hrs by sulforhodamine B assay; details: values are per cent of control
# HT-29 = assay: Growth inhibition of human HT-29 cells at 10 uM after 48 hrs by sulforhodamine B assay; details: HT-29, 48 h, values are per cent of control
# UACC-257 = assay: Growth inhibition of human UACC257 cells at 10 uM after 48 hrs by sulforhodamine B assay; details: UACC-257, 48 h, values are per cent of control
# SK-MEL-5 = assay: Growth inhibition of human SK-MEL-5 cells at 10 uM after 48 hrs by sulforhodamine B assay; details: SK-MEL-5, 48 h, values are per cent of control
# BT-549 = assay: Growth inhibition of human BT549 cells at 10 uM after 48 hrs by sulforhodamine B assay; details: BT-549, 48 h, values are per cent of control
# 786-0 = assay: Growth inhibition of human 786-0 cells at 10 uM after 48 hrs by sulforhodamine B assay; details: 786-0, 48 h, values are per cent of control
# HCT-15 = assay: Growth inhibition of human HCT15 cells at 10 uM after 48 hrs by sulforhodamine B assay; details: HCT-15, 48 h, values are per cent of control
# HL-60(TB) = assay: Growth inhibition of human HL-60(TB) cells at 10 uM after 48 hrs by sulforhodamine B assay; details: HL-60, 48 h, read-out: GI
# K562 = assay: Growth inhibition of human K562 cells at 10 uM after 48 hrs by sulforhodamine B assay; details: K562, 48 h, values are per cent of control
# NCI-H322M = assay: Growth inhibition of human NCI-H322M cells at 10 uM after 48 hrs by sulforhodamine B assay; details: values are per cent of control
# SNB-19 = assay: Growth inhibition of human SNB19 cells at 10 uM after 48 hrs by sulforhodamine B assay; details: SNB-19, 48 h, values are per cent of control
# OVCAR-8 = assay: Growth inhibition of human OVCAR8 cells at 10 uM after 48 hrs by sulforhodamine B assay; details: OVCAR-8, 48 h, read-out: GI
# Malme-3M = assay: Growth inhibition of human MALME-3M cells at 10 uM after 48 hrs by sulforhodamine B assay; details: values are per cent of control
# NCI-H23 = assay: Growth inhibition of human NCI-H23 cells at 10 uM after 48 hrs by sulforhodamine B assay; details: NCI-H23, 48 h, values are per cent of control
# OVCAR-3 = assay: Growth inhibition of human OVCAR-3 cells at 10 uM after 48 hrs by sulforhodamine B assay; details: OVCAR-3, 48 h, values are per cent of control
# CCRF-CEM = assay: Growth inhibition of human CCRF-CEM cells at 10 uM after 48 hrs by sulforhodamine B assay; details: values are per cent of control
# Rattus norvegicus [2] = assay: Antiinflammatory activity against carrageenan-induced paw edema in Wister albino rat assessed as inhibition of edema at 50 mg/kg, ip administered 1 hr prior to carrageenan challenge measured after 1 hr relative to control; details: route intraperitoneal
SMILES,inhibition in vivo at 50 mg/kg (Rattus norvegicus [1]) [%],"growth, % of control at 10 µM (HCC 2998) [%]","growth, % of control at 10 µM (MDA-MB-435) [%]","growth, % of control at 10 µM (COLO 205) [%]","growth, % of control at 10 µM (M14) [%]","growth, % of control at 10 µM (ACHN) [%]","growth, % of control at 10 µM (HT-29) [%]","growth, % of control at 10 µM (UACC-257) [%]","growth, % of control at 10 µM (SK-MEL-5) [%]","growth, % of control at 10 µM (BT-549) [%]","growth, % of control at 10 µM (786-0) [%]","growth, % of control at 10 µM (HCT-15) [%]","growth, % of control at 10 µM (K562) [%]","growth, % of control at 10 µM (NCI-H322M) [%]","growth, % of control at 10 µM (SNB-19) [%]",inhibition of growth at 10 µM (OVCAR-8) [%],"growth, % of control at 10 µM (Malme-3M) [%]","growth, % of control at 10 µM (NCI-H23) [%]","growth, % of control at 10 µM (OVCAR-3) [%]","growth, % of control at 10 µM (CCRF-CEM) [%]",other results
[3H]N1C(=O)[C@@]2(c3ccccc31)N(C)C[C@@H](c1cccs1)[C@@]21Cc2ccccc2C1=O,39.1,103,115,120,103,97.9,99.6,65,114,119,111,103,93.7,98.9,99.8,60.2,93.5,92,95.6,91.4,"growth, % of control at 10 µM (HL-60(TB)): 89.7%; inhibition in vivo at 50 mg/kg (Rattus norvegicus [2]): 49.9%"
[3H]C([3H])([3H])N1C(=O)[C@@]2(c3ccccc31)N(C)C[C@@H](c1ccc(Cl)cc1)[C@@]21Cc2ccccc2C1=O,36.3,88,101,70.5,76.6,82.8,46.1,42.6,87,111,86.2,68.3,39.5,106,89.9,60.9,102,58,69.3,108,inhibition in vivo at 50 mg/kg (Rattus norvegicus [2]): 47.2%
[3H]N1C(=O)[C@@]2(c3ccccc31)N(C)C[C@@H](c1ccc(Cl)cc1)[C@@]21Cc2ccccc2C1=O,28.4,95.7,95.1,84.8,82.9,80.5,73.8,34.5,112,121,88.9,82.5,58.5,104,89.9,69.2,120,75,78.6,74.7,"growth, % of control at 10 µM (HL-60(TB)): 76.7%; inhibition in vivo at 50 mg/kg (Rattus norvegicus [2]): 27.9%"
[3H]C([3H])([3H])N1C(=O)[C@@]2(c3ccccc31)N(C)C[C@@H](c1cccs1)[C@@]21Cc2ccccc2C1=O,10.8,104,111,107,104,98.4,97.5,52.6,112,131,106,108,72.5,89.3,96.2,64,123,92,100,90.5,"growth, % of control at 10 µM (HL-60(TB)): 70%; inhibition in vivo at 50 mg/kg (Rattus norvegicus [2]): 33%"
[3H]N1C(=O)[C@@]2(c3ccccc31)N(C)C[C@@H](c1ccc(OC)cc1)[C@@]21Cc2ccccc2C1=O,17.5,76.7,124,100,97.5,98.1,138,99.3,101,118,102,107,93.9,111,92.2,55.3,132,89.3,98.5,87.3,"growth, % of control at 10 µM (HL-60(TB)): 72.8%; inhibition in vivo at 50 mg/kg (Rattus norvegicus [2]): 41.2%"
[3H]C([3H])([3H])N1C(=O)[C@@]2(c3ccccc31)N(C)C[C@@H](c1ccc(OC)cc1)[C@@]21Cc2ccccc2C1=O,20.2,104,101,104,94.1,82.8,66.9,88.7,88.1,101,88,89.1,85.2,124,94.1,83.8,104,84.5,92.5,72.1,"growth, % of control at 10 µM (HL-60(TB)): 170%; inhibition in vivo at 50 mg/kg (Rattus norvegicus [2]): 46.9%"
